Experimental data reported in PubChem BioAssay (NCI).
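Protocol summary: plate cells (96-well), add compound at 5 concentrations, incubate 48 h, interpolate endpoints linearly. TGI: total growth inhibition.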

How the values were obtained:
Test in all cases: growth of human tumour cells (NCI), 48 h
786-0 renal = test system: 786-0 renal
A498 renal = test system: A498 renal
A549 NSCLC = test system: A549 NSCLC
ACHN renal = test system: ACHN renal
BT-549 breast = test system: BT-549 breast
CAKI-1 renal = test system: CAKI-1 renal
CCRF-CEM leukemia = test system: CCRF-CEM leukemia
COLO 205 colon = test system: COLO 205 colon
DU-145 prostate = test system: DU-145 prostate
EKVX NSCLC = test system: EKVX NSCLC
HCC-2998 colon = test system: HCC-2998 colon
HCT-116 colon = test system: HCT-116 colon
HCT-15 colon = test system: HCT-15 colon
HL-60(TB) leukemia = test system: HL-60(TB) leukemia
HOP-62 NSCLC = test system: HOP-62 NSCLC
HOP-92 NSCLC = test system: HOP-92 NSCLC
HS 578T breast = test system: HS 578T breast
HT29 colon = test system: HT29 colon
IGROV1 ovarian = test system: IGROV1 ovarian
K-562 leukemia = test system: K-562 leukemia
LOX IMVI melanoma = test system: LOX IMVI melanoma
M14 melanoma = test system: M14 melanoma
MALME-3M melanoma = test system: MALME-3M melanoma
MCF7 breast = test system: MCF7 breast
MDA-MB-231 breast = test system: MDA-MB-231 breast
MDA-MB-435 = test system: MDA-MB-435
MDA-N = test system: MDA-N
MOLT-4 leukemia = test system: MOLT-4 leukemia
NCI-H226 lung = test system: NCI-H226 lung
NCI-H23 lung = test system: NCI-H23 lung
NCI-H460 lung = test system: NCI-H460 lung
NCI/ADR-RES ovarian = test system: NCI/ADR-RES ovarian
OVCAR-3 ovarian = test system: OVCAR-3 ovarian
OVCAR-5 ovarian = test system: OVCAR-5 ovarian
OVCAR-8 ovarian = test system: OVCAR-8 ovarian
PC-3 prostate = test system: PC-3 prostate
RPMI-8226 leukemia = test system: RPMI-8226 leukemia
RXF 393 renal = test system: RXF 393 renal
SF-295 CNS = test system: SF-295 CNS
SF-539 CNS = test system: SF-539 CNS
SK-MEL-2 melanoma = test system: SK-MEL-2 melanoma
SK-MEL-5 melanoma = test system: SK-MEL-5 melanoma
SK-OV-3 ovarian = test system: SK-OV-3 ovarian
SN12C renal = test system: SN12C renal
SNB-19 CNS = test system: SNB-19 CNS
SR leukemia = test system: SR leukemia
SW-620 colon = test system: SW-620 colon
TK-10 renal = test system: TK-10 renal
U251 CNS = test system: U251 CNS
UACC-257 melanoma = test system: UACC-257 melanoma
UACC-62 melanoma = test system: UACC-62 melanoma
UO-31 renal = test system: UO-31 renal
KM12 colon = test system: KM12 colon
NCI-H522 lung = test system: NCI-H522 lung
OVCAR-4 ovarian = test system: OVCAR-4 ovarian
SF-268 CNS = test system: SF-268 CNS
SK-MEL-28 melanoma = test system: SK-MEL-28 melanoma

Cc1cccc(N2C(=O)C3c4[nH]c5ccccc5c4C4CCC(C(C)(C)C)CC4C3C2=O)c1C (configuration not stated)
TGI (786-0 renal): > 100 µM | TGI (A498 renal): > 100 µM | TGI (A549 NSCLC): > 100 µM | TGI (ACHN renal): > 100 µM | TGI (BT-549 breast): > 100 µM | TGI (CAKI-1 renal): > 100 µM | TGI (CCRF-CEM leukemia): > 100 µM | TGI (COLO 205 colon): > 100 µM | TGI (DU-145 prostate): > 100 µM | TGI (EKVX NSCLC): > 100 µM | TGI (HCC-2998 colon): > 100 µM | TGI (HCT-116 colon): > 100 µM | TGI (HCT-15 colon): > 100 µM | TGI (HL-60(TB) leukemia): 60.4 µM | TGI (HOP-62 NSCLC): > 100 µM | TGI (HOP-92 NSCLC): > 100 µM | TGI (HS 578T breast): > 100 µM | TGI (HT29 colon): > 100 µM | TGI (IGROV1 ovarian): > 100 µM | TGI (K-562 leukemia): > 100 µM | TGI (LOX IMVI melanoma): > 100 µM | TGI (M14 melanoma): > 100 µM | TGI (MALME-3M melanoma): > 100 µM | TGI (MCF7 breast): > 100 µM | TGI (MDA-MB-231 breast): 42.3 µM | TGI (MDA-MB-435): > 100 µM | TGI (MDA-N): > 100 µM | TGI (MOLT-4 leukemia): > 100 µM | TGI (NCI-H226 lung): > 100 µM | TGI (NCI-H23 lung): > 100 µM | TGI (NCI-H460 lung): > 100 µM | TGI (NCI/ADR-RES ovarian): > 100 µM | TGI (OVCAR-3 ovarian): > 100 µM | TGI (OVCAR-5 ovarian): > 100 µM | TGI (OVCAR-8 ovarian): > 100 µM | TGI (PC-3 prostate): > 100 µM | TGI (RPMI-8226 leukemia): > 100 µM | TGI (RXF 393 renal): > 100 µM | TGI (SF-295 CNS): > 100 µM | TGI (SF-539 CNS): > 100 µM | TGI (SK-MEL-2 melanoma): > 100 µM | TGI (SK-MEL-5 melanoma): > 100 µM | TGI (SK-OV-3 ovarian): > 100 µM | TGI (SN12C renal): > 100 µM | TGI (SNB-19 CNS): > 100 µM | TGI (SR leukemia): > 100 µM | TGI (SW-620 colon): > 100 µM | TGI (TK-10 renal): > 100 µM | TGI (U251 CNS): 83.4 µM | TGI (UACC-257 melanoma): > 100 µM | TGI (UACC-62 melanoma): > 100 µM | TGI (UO-31 renal): > 100 µM

CN(C)CCCNC(=S)S
TGI (786-0 renal): > 100 µM | TGI (A498 renal): > 100 µM | TGI (A549 NSCLC): > 100 µM | TGI (ACHN renal): > 100 µM | TGI (BT-549 breast): > 100 µM | TGI (CAKI-1 renal): > 100 µM | TGI (CCRF-CEM leukemia): > 100 µM | TGI (COLO 205 colon): > 100 µM | TGI (DU-145 prostate): > 100 µM | TGI (EKVX NSCLC): > 100 µM | TGI (HCT-116 colon): > 100 µM | TGI (HCT-15 colon): > 100 µM | TGI (HL-60(TB) leukemia): > 100 µM | TGI (HOP-62 NSCLC): > 100 µM | TGI (HOP-92 NSCLC): > 100 µM | TGI (HS 578T breast): > 100 µM | TGI (HT29 colon): > 100 µM | TGI (IGROV1 ovarian): > 100 µM | TGI (K-562 leukemia): > 100 µM | TGI (KM12 colon): > 100 µM | TGI (LOX IMVI melanoma): > 100 µM | TGI (M14 melanoma): > 100 µM | TGI (MALME-3M melanoma): > 100 µM | TGI (MCF7 breast): > 100 µM | TGI (MDA-MB-231 breast): > 100 µM | TGI (MDA-MB-435): > 100 µM | TGI (MDA-N): > 100 µM | TGI (MOLT-4 leukemia): > 100 µM | TGI (NCI-H226 lung): > 100 µM | TGI (NCI-H23 lung): > 100 µM | TGI (NCI-H460 lung): > 100 µM | TGI (NCI-H522 lung): > 100 µM | TGI (NCI/ADR-RES ovarian): > 100 µM | TGI (OVCAR-3 ovarian): > 100 µM | TGI (OVCAR-4 ovarian): > 100 µM | TGI (OVCAR-5 ovarian): > 100 µM | TGI (OVCAR-8 ovarian): > 100 µM | TGI (PC-3 prostate): > 100 µM | TGI (RPMI-8226 leukemia): > 100 µM | TGI (RXF 393 renal): > 100 µM | TGI (SF-268 CNS): > 100 µM | TGI (SF-295 CNS): > 100 µM | TGI (SF-539 CNS): > 100 µM | TGI (SK-MEL-2 melanoma): > 100 µM | TGI (SK-MEL-28 melanoma): > 100 µM | TGI (SK-MEL-5 melanoma): > 100 µM | TGI (SK-OV-3 ovarian): > 100 µM | TGI (SN12C renal): > 100 µM | TGI (SNB-19 CNS): > 100 µM | TGI (SR leukemia): > 100 µM | TGI (SW-620 colon): > 100 µM | TGI (TK-10 renal): > 100 µM | TGI (U251 CNS): > 100 µM | TGI (UACC-257 melanoma): > 100 µM

NC(Cc1ccc(OCc2ccccc2)cn1)C(=O)OCc1ccccc1 (configuration not stated)
TGI (786-0 renal): > 100 µM | TGI (A498 renal): > 100 µM | TGI (A549 NSCLC): > 100 µM | TGI (ACHN renal): > 100 µM | TGI (BT-549 breast): > 100 µM | TGI (CAKI-1 renal): > 100 µM | TGI (CCRF-CEM leukemia): > 100 µM | TGI (COLO 205 colon): > 100 µM | TGI (DU-145 prostate): > 100 µM | TGI (EKVX NSCLC): > 100 µM | TGI (HCC-2998 colon): > 100 µM | TGI (HCT-116 colon): > 100 µM | TGI (HCT-15 colon): > 100 µM | TGI (HL-60(TB) leukemia): > 100 µM | TGI (HOP-62 NSCLC): > 100 µM | TGI (HOP-92 NSCLC): > 100 µM | TGI (HS 578T breast): > 100 µM | TGI (HT29 colon): > 100 µM | TGI (IGROV1 ovarian): > 100 µM | TGI (K-562 leukemia): > 100 µM | TGI (KM12 colon): > 100 µM | TGI (LOX IMVI melanoma): > 100 µM | TGI (MALME-3M melanoma): > 100 µM | TGI (MCF7 breast): > 100 µM | TGI (MDA-MB-231 breast): > 100 µM | TGI (MDA-MB-435): > 100 µM | TGI (MDA-N): > 100 µM | TGI (NCI-H226 lung): > 100 µM | TGI (NCI-H23 lung): > 100 µM | TGI (NCI-H460 lung): > 100 µM | TGI (NCI-H522 lung): > 100 µM | TGI (NCI/ADR-RES ovarian): > 100 µM | TGI (OVCAR-3 ovarian): > 100 µM | TGI (OVCAR-4 ovarian): > 100 µM | TGI (OVCAR-5 ovarian): > 100 µM | TGI (OVCAR-8 ovarian): > 100 µM | TGI (PC-3 prostate): > 100 µM | TGI (RPMI-8226 leukemia): > 100 µM | TGI (RXF 393 renal): > 100 µM | TGI (SF-295 CNS): > 100 µM | TGI (SF-539 CNS): > 100 µM | TGI (SK-MEL-28 melanoma): > 100 µM | TGI (SK-MEL-5 melanoma): > 100 µM | TGI (SN12C renal): > 100 µM | TGI (SNB-19 CNS): > 100 µM | TGI (SR leukemia): > 100 µM | TGI (SW-620 colon): > 100 µM | TGI (TK-10 renal): > 100 µM | TGI (U251 CNS): > 100 µM | TGI (UACC-257 melanoma): > 100 µM | TGI (UO-31 renal): > 100 µM
